Measured values taken from patent US20110201113A1, “Ex Vivo Progenitor and Stem Cell Expansion and Differentiation for Use in the Treatment of Disease of the Nervous System” (priority 2010, published 2011).

Legend:
Human neural stem cells [1] = experiment: Proliferation of neural stem cells treated with various bioactive molecules (alternating growth conditions, cell counting); format: cell-based; conditions: second 8 weeks of 16; factor + 1% FBS alternating weekly with EGF, bFGF, LIF, no FBS
Description: hNSC's were alternately cultured in media containing a certain growth factor and serum (GF+FBS) or in the media containing EFL but lacking the presence of fetal bovine serum (EFL−FBS) as shown in FIG. 3. The media was changed on days 7 and 14 after plating the cells. This example utilized an initial incubation in EFL−FBS, followed by incubation in media including FBS. Experimental analysis of hNSCs was carried out on days 5, 10, 15, and 20, if not otherwise indicated.
Medium 2 (+GFs): DMEM/F12 (1:1), 2% B27 (Gibco), 1% Pen-Strep (PAA), 1% FBS (Gibco)+one of the combination of growth factors (CNTF, Jagged, SHH, TGFa, Wnt1, Wnt5A, or all)
7 different combinations of growth factors were used: 2.1. CNTF (20 ng/ml, Peprotech); 2.2. Jagged (20 ng/ml, Peprotech); 2.3. SHH (20 ng/ml, Peprotech); 2.4. TGFa (20 ng/ml, Peprotech); 2.5 Wnt1 (20 ng/ml, R&D); 2.6 Wnt5A (20 ng/ml, R&D); and 2.7 all above.
On days 5, 10, 15, and 20, if not otherwise indicated, neurospheres were dissociated using trypsin and single cells were counted using a hemocytometer. As a control, hNSCs were continuously grown in the absence of serum, but in the presence of growth factors EFL (control). The color code indicates the specific growth factor (GF) that was used in the GF+FBS mode. Abbreviations used: GF, growth factor; CNTF, ciliary neurotrophic factor; Jagged, SHH, sonic hedgehog; TGFα, transforming growth factor alpha; Wnt1, wingless-type MMTV integration site family, member 1; Wnt5A wingless-type MMTV integration site family, […]; or combined (CNTF, Jagged, SHH, TGFα, Wnt1, Wnt5A), E, EGF; F, bFGF; L, LIF.
Human neural stem cells are most routinely grown in medium supplemented with EGF and bFGF (and LIF). […] Cells were grown for 16 weeks and counted regularly every two weeks. […] Cells were counted 8 times. […] At the last time point analyzed, 5 times more cells were grown with control medium than under any other conditions.

Human neural stem cells [2] = experiment: Differentiation of neural stem cells to neurons and astrocytes (bTubIII immunostaining on laminin); format: cell-based; conditions: cells taken after 8 and 12 weeks in culture, 14 days on laminin without factors; 3 random fields counted
Description: Next, how the stimulation of signaling pathways affects the commitment of human neural stem cells to neuronal and glial lineages was examined. For differentiation, samples of cells grown in all 8 conditions were removed from proliferating cell populations (after 8 and 12 weeks in culture) and plated onto laminin coated coverslips. All additional factors were excluded from culture medium and cells were grown for 14 days. Next, cells were fixed and stained for neural and glial markers as described previously. Examples of immunocytochemistry analysis can be seen on FIG. 8. […] No cells were detected as positive for oligodendrocyte marker O4. After immunostaining, cells from 3 random fields were counted and their differentiation potential was estimated according to the number of bTubIII positive cells present in samples. Results can be seen on FIG. 9. […] Cells grown with Wnt5a had the least percentage of bTubIII positive cells (33%), all the other conditions gave 41 to 47% of bTubIII positive cells (in control 45%).

Molecule	support of cell growth (Human neural stem cells [1])	percentage of bTubIII positive cells (Human neural stem cells [2]) [%]
Jagged-1: Jagged growth factor, 20 ng/ml, Peprotech	slightly more efficient than the others	
TGFa: transforming growth factor alpha, 20 ng/ml, Peprotech	slightly more efficient than the others	
Wnt1: wingless-type MMTV integration site family, member 1; growth factor, 20 ng/ml, R&D (protein, UniProt P04628 28-370, looked up) Proto-oncogene Wnt-1: ANSSGRWWGIVNVASSTNLLTDSKSLQLVLEPSLQLLSRKQRRLIRQNPGILHSVSGGLQSAVRECKWQFRNRRWNCPTAPGPHLFGKIVNRGCRETAFIFAITSAGVTHSVARSCSEGSIESCTCDYRRRGPGGPDWHWGGCSDNIDFGRLFGREFVDSGEKGRDLRFLMNLHNNEAGRTTVFSEMRQECKCHGMSGSCTVRTCWMRLPTLRAVGDVLRDRFDGASRVLYGNRGSNRASRAELLRLEPEDPAHKPPSPHDLVYFEKSPNFCTYSGRLGTAGTAGRACNSSSPALDGCELLCCGRGHRTRTQRVTERCNCTFHWCCHVSCRNCTHTRVLHECL	slightly more efficient than the others	
Wnt5a: wingless-type MMTV integration site family, member 15a (as printed); growth factor, 20 ng/ml, R&D (protein, UniProt P41221 62-380, looked up) Protein Wnt-5a: IIGAQPLCSQLAGLSQGQKKLCHLYQDHMQYIGEGAKTGIKECQYQFRHRRWNCSTVDNTSVFGRVMQIGSRETAFTYAVSAAGVVNAMSRACREGELSTCGCSRAARPKDLPRDWLWGGCGDNIDYGYRFAKEFVDARERERIHAKGSYESARILMNLHNNEAGRRTVYNLADVACKCHGVSGSCSLKTCWLQLADFRKVGDALKEKYDSAAAMRLNSRGKLVQVNSRFNSPTTQDLVYIDPSPDYCVRNESTGSLGTQGRLCNKTSEGMDGCELMCCGRGYDQFKTVQTERCHCKFHWCCYVKCKKCTEIVDQFVCK		33
